Test: Biodistribution of radiotracers in normal mice
Assay type: in vivo, mouse
Conditions: normal male mice
Description: Normal CD-1 male mice were injected via the tail vein with 35 μCi of [^68Ga] radiotracers (0.2 nmole of ligand). […] All organs were removed and blood was also collected. Each organ was weighed, and the tissue radioactivity was measured with an automated gamma counter (Wizard, Perkin Elmer). The % ID/g was calculated by comparison with samples of a standard dilution of the initial dose. All measurements were corrected for decay.

## O=C(O)CC[C@H](NC(=O)N[C@@H](CCCCNC(=O)CCCCCNC(=O)CCc1ccc2c(c1)C[N+]13CC[N+]45CC(=O)[O][68Ga-3]14([O]C(=O)C3)([O]2)[O]c1ccc(CCC(=O)NCC(=O)O)cc1C5)C(=O)O)C(=O)O (stereo partly drawn) [[^68Ga]1c]
2 min
  Biodistribution: Blood: 8.55 ± 0.07 % dose/g
  Biodistribution: Bone: 2.30 ± 0.07 % dose/g
  Biodistribution: Brain: 0.28 ± 0.04 % dose/g
  Biodistribution: Heart: 3.48 ± 0.31 % dose/g
  Biodistribution: Kidney: 47.2 ± 2.68 % dose/g
  Biodistribution: Liver: 2.91 ± 0.15 % dose/g
  Biodistribution: Lung: 5.42 ± 0.23 % dose/g
  Biodistribution: Muscle: 2.16 ± 0.34 % dose/g
  Biodistribution: Pancreas: 2.20 ± 0.04 % dose/g
  Biodistribution: Skin: 3.00 ± 0.40 % dose/g
  Biodistribution: Spleen: 3.58 ± 0.48 % dose/g
60 min
  Biodistribution: Blood: 0.58 ± 0.07 % dose/g
  Biodistribution: Bone: 1.24 ± 0.19 % dose/g
  Biodistribution: Brain: 0.03 ± 0.01 % dose/g
  Biodistribution: Heart: 0.43 ± 0.14 % dose/g
  Biodistribution: Kidney: 83.5 ± 14.7 % dose/g
  Biodistribution: Liver: 0.79 ± 0.15 % dose/g
  Biodistribution: Lung: 0.90 ± 0.16 % dose/g
  Biodistribution: Muscle: 0.60 ± 0.13 % dose/g
  Biodistribution: Pancreas: 1.13 ± 0.17 % dose/g
  Biodistribution: Skin: 1.07 ± 0.16 % dose/g
  Biodistribution: Spleen: 1.63 ± 0.20 % dose/g

## C[C@H](NC(=O)CCc1ccc2c(c1)C[N+]13CC[N+]45CC(=O)[O][68Ga-3]41([O]C(=O)C3)([O]c1ccc(CCC(=O)NCCCCCC(=O)NCCCC[C@H](NC(=O)N[C@@H](CCC(=O)O)C(=O)O)C(=O)O)cc1C5)[O]2)C(=O)O (stereo partly drawn) [[^68Ga]1d]
2 min
  Biodistribution: Blood: 7.44 ± 1.40 % dose/g
  Biodistribution: Bone: 2.01 ± 0.24 % dose/g
  Biodistribution: Brain: 0.23 ± 0.04 % dose/g
  Biodistribution: Heart: 3.18 ± 0.48 % dose/g
  Biodistribution: Kidney: 50.3 ± 8.32 % dose/g
  Biodistribution: Liver: 2.36 ± 0.27 % dose/g
  Biodistribution: Lung: 4.96 ± 0.67 % dose/g
  Biodistribution: Muscle: 1.96 ± 0.08 % dose/g
  Biodistribution: Pancreas: 1.83 ± 0.40 % dose/g
  Biodistribution: Skin: 2.30 ± 0.20 % dose/g
  Biodistribution: Spleen: 3.40 ± 0.91 % dose/g
60 min
  Biodistribution: Blood: 0.44 ± 0.06 % dose/g
  Biodistribution: Bone: 0.70 ± 0.09 % dose/g
  Biodistribution: Brain: 0.03 ± 0.00 % dose/g
  Biodistribution: Heart: 0.42 ± 0.01 % dose/g
  Biodistribution: Kidney: 141.7 ± 0.82 % dose/g
  Biodistribution: Liver: 0.68 ± 0.11 % dose/g
  Biodistribution: Lung: 1.10 ± 0.13 % dose/g
  Biodistribution: Muscle: 0.50 ± 0.07 % dose/g
  Biodistribution: Pancreas: 1.02 ± 0.18 % dose/g
  Biodistribution: Skin: 0.81 ± 0.11 % dose/g
  Biodistribution: Spleen: 5.11 ± 0.97 % dose/g

## O=C(O)CC[C@H](NC(=O)N[C@@H](CCCCNC(=O)CCCCCNC(=O)CCc1ccc2c(c1)C[N+]13CC[N+]45CC(=O)[O][68Ga-3]14([O]C(=O)C3)([O]2)[O]c1ccc(CCC(=O)N[C@@H](CC(=O)O)C(=O)O)cc1C5)C(=O)O)C(=O)O (stereo partly drawn) [[^68Ga]1e]
2 min
  Biodistribution: Blood: 7.47 ± 0.33 % dose/g
  Biodistribution: Bone: 2.33 ± 0.05 % dose/g
  Biodistribution: Brain: 0.25 ± 0.07 % dose/g
  Biodistribution: Heart: 3.12 ± 0.17 % dose/g
  Biodistribution: Kidney: 46.6 ± 3.01 % dose/g
  Biodistribution: Liver: 2.00 ± 0.09 % dose/g
  Biodistribution: Lung: 5.08 ± 0.13 % dose/g
  Biodistribution: Muscle: 2.01 ± 0.09 % dose/g
  Biodistribution: Pancreas: 1.80 ± 0.17 % dose/g
  Biodistribution: Skin: 2.46 ± 0.32 % dose/g
  Biodistribution: Spleen: 3.69 ± 0.45 % dose/g
60 min
  Biodistribution: Blood: 0.45 ± 0.14 % dose/g
  Biodistribution: Bone: 0.52 ± 0.06 % dose/g
  Biodistribution: Brain: 0.02 ± 0.00 % dose/g
  Biodistribution: Heart: 0.28 ± 0.05 % dose/g
  Biodistribution: Kidney: 113 ± 28.5 % dose/g
  Biodistribution: Liver: 0.35 ± 0.09 % dose/g
  Biodistribution: Lung: 1.14 ± 0.30 % dose/g
  Biodistribution: Muscle: 0.33 ± 0.07 % dose/g
  Biodistribution: Pancreas: 0.74 ± 0.19 % dose/g
  Biodistribution: Skin: 0.67 ± 0.06 % dose/g
  Biodistribution: Spleen: 3.03 ± 0.90 % dose/g

## O=C(O)CC[C@H](NC(=O)CCc1ccc2c(c1)C[N+]13CC[N+]45CC(=O)[O][68Ga-3]41([O]C(=O)C3)([O]c1ccc(CCC(=O)NCCCCCC(=O)NCCCC[C@H](NC(=O)N[C@@H](CCC(=O)O)C(=O)O)C(=O)O)cc1C5)[O]2)C(=O)O (stereo partly drawn) [[^68Ga]1f]
2 min
  Biodistribution: Blood: 7.77 ± 1.51 % dose/g
  Biodistribution: Bone: 2.33 ± 0.38 % dose/g
  Biodistribution: Brain: 0.25 ± 0.02 % dose/g
  Biodistribution: Heart: 3.23 ± 0.64 % dose/g
  Biodistribution: Kidney: 45.0 ± 12.57 % dose/g
  Biodistribution: Liver: 2.43 ± 0.60 % dose/g
  Biodistribution: Lung: 5.07 ± 1.01 % dose/g
  Biodistribution: Muscle: 1.81 ± 0.07 % dose/g
  Biodistribution: Pancreas: 1.72 ± 0.41 % dose/g
  Biodistribution: Skin: 2.44 ± 0.16 % dose/g
  Biodistribution: Spleen: 3.80 ± 0.97 % dose/g
60 min
  Biodistribution: Blood: 0.97 ± 0.24 % dose/g
  Biodistribution: Bone: 1.08 ± 0.05 % dose/g
  Biodistribution: Brain: 0.04 ± 0.01 % dose/g
  Biodistribution: Heart: 0.52 ± 0.07 % dose/g
  Biodistribution: Kidney: 120 ± 5.65 % dose/g
  Biodistribution: Liver: 0.79 ± 0.13 % dose/g
  Biodistribution: Lung: 1.37 ± 0.15 % dose/g
  Biodistribution: Muscle: 0.60 ± 0.04 % dose/g
  Biodistribution: Pancreas: 1.13 ± 0.17 % dose/g
  Biodistribution: Skin: 0.98 ± 0.10 % dose/g
  Biodistribution: Spleen: 2.98 ± 1.86 % dose/g

## O=C(O)CC[C@H](NC(=O)N[C@@H](CCCCNC(=O)CCCCCNC(=O)CCc1ccc2c(c1)C[N+]13CC[N+]45CC(=O)[O][68Ga-3]14([O]C(=O)C3)([O]2)[O]c1ccc(CCC(=O)NCCNC(=O)CN2CCN(CC(=O)O)CCN(CC(=O)O)CCN(CC(=O)O)CC2)cc1C5)C(=O)O)C(=O)O (stereo partly drawn) [[^68Ga]1g]
2 min
  Biodistribution: Blood: 7.62 ± 0.08 % dose/g
  Biodistribution: Bone: 1.51 ± 0.17 % dose/g
  Biodistribution: Brain: 0.29 ± 0.06 % dose/g
  Biodistribution: Heart: 2.82 ± 0.21 % dose/g
  Biodistribution: Kidney: 50.9 ± 5.81 % dose/g
  Biodistribution: Liver: 2.00 ± 0.05 % dose/g
  Biodistribution: Lung: 5.19 ± 0.19 % dose/g
  Biodistribution: Muscle: 1.72 ± 0.18 % dose/g
  Biodistribution: Pancreas: 1.73 ± 0.09 % dose/g
  Biodistribution: Skin: 2.00 ± 0.21 % dose/g
  Biodistribution: Spleen: 5.06 ± 0.78 % dose/g
30 min
  Biodistribution: Blood: 0.68 ± 0.09 % dose/g
  Biodistribution: Bone: 0.22 ± 0.11 % dose/g
  Biodistribution: Brain: 0.06 ± 0.03 % dose/g
  Biodistribution: Heart: 0.49 ± 0.15 % dose/g
  Biodistribution: Kidney: 110 ± 13.4 % dose/g
  Biodistribution: Liver: 0.47 ± 0.06 % dose/g
  Biodistribution: Lung: 2.13 ± 0.39 % dose/g
  Biodistribution: Muscle: 0.48 ± 0.04 % dose/g
  Biodistribution: Pancreas: 0.73 ± 0.19 % dose/g
  Biodistribution: Skin: 1.13 ± 0.25 % dose/g
  Biodistribution: Spleen: 5.28 ± 2.18 % dose/g
60 min
  Biodistribution: Blood: 0.41 ± 0.02 % dose/g
  Biodistribution: Bone: 0.28 ± 0.03 % dose/g
  Biodistribution: Brain: 0.03 ± 0.01 % dose/g
  Biodistribution: Heart: 0.27 ± 0.03 % dose/g
  Biodistribution: Kidney: 116 ± 23.2 % dose/g
  Biodistribution: Liver: 0.43 ± 0.05 % dose/g
  Biodistribution: Lung: 1.33 ± 0.06 % dose/g
  Biodistribution: Muscle: 0.30 ± 0.08 % dose/g
  Biodistribution: Pancreas: 0.48 ± 0.05 % dose/g
  Biodistribution: Skin: 0.92 ± 0.11 % dose/g
  Biodistribution: Spleen: 4.77 ± 2.37 % dose/g
120 min
  Biodistribution: Blood: 0.25 ± 0.04 % dose/g
  Biodistribution: Bone: 0.28 ± 0.03 % dose/g
  Biodistribution: Brain: 0.02 ± 0.00 % dose/g
  Biodistribution: Heart: 0.16 ± 0.01 % dose/g
  Biodistribution: Kidney: 95.0 ± 11.2 % dose/g
  Biodistribution: Liver: 0.30 ± 0.01 % dose/g
  Biodistribution: Lung: 0.85 ± 0.16 % dose/g
  Biodistribution: Muscle: 0.23 ± 0.04 % dose/g
  Biodistribution: Pancreas: 0.39 ± 0.04 % dose/g
  Biodistribution: Skin: 0.66 ± 0.10 % dose/g
  Biodistribution: Spleen: 2.48 ± 0.91 % dose/g
